Experimental data from patent US9580390B2, “Indazole compounds as kinase inhibitors and method of treating cancer with same” (University Health Network, priority 2011, dated 2017).

Tests used:
[1] = tested on: colon cancer cells (HCT116); test: Cancer cell line growth inhibition (SRB assay); assay type: cell-based; settings: Homo sapiens, HCT-116; HCT116 colon cancer cells, SRB assay; read-out: Cancer Cell Line GI50 Range HCT116
[2] = tested on: ovarian cancer cells (PA-1); test: Cancer cell line growth inhibition (SRB assay); assay type: cell-based; settings: PA-1 ovarian cancer cells, SRB assay; read-out: Cancer Cell Line GI50 Range PA-1
[3] = tested on: TICs (Colon 12); test: Colon tumor-initiating cell growth inhibition (Alamar Blue); assay type: cell-based; settings: 216 h; colon TICs, 9 days, Alamar Blue; read-out: Tumor Initiating Cell GI50 Range Colon 12
Description: (§1) Materials and Methods: Non-tissue or tissue cultured treated T-75 flask and 96-well plates were purchased from VWR. Vitamin B-27 supplement, MEM NEAA (minimum essential medium non essential amino acids), sodium pyruvate, L-glutamine, N2 supplement, penicillin-streptomycin and fungizone/amphotericin B were obtained from Invitrogen. Lipid mixture, heparin and EGF were purchased from Sigma; bFGF from BD Biosciences. Tumor Initiating Cells (TICs) from colon were routinely maintained using non-tissue cultured treated T-75 flasks in DMEM:F12 medium containing 0.2×B-27 supplement, 4 ug/ml heparin, 1×MEM NEAA, 1× sodium pyruvate, 1 mM glutamine, 10 pg/ul bFGF, 20 pg/ul EGF, 1×N2 supplement, lipid mixture, penicillin-streptomycin and fungizone/amphotericin B. Ovarian TICs were routinely maintained using tissue cultured treated T-75 flasks in DMEM:F12 medium containing 1×B-27 supplement, 4 ug/ml heparin, 20 pg/ul bFGF, 20 pg/ul EGF and penicillin-streptomycin.
(§2) Assay Protocol: Compounds described herein were dissolved in DMSO and further diluted in cell culture medium for GI50 determination. Colon TICs were trypsinized and seeded into non-tissue cultured treated 96-well plates with 4,000 cells/well. After 24 h, compound was added into the cell culture at different concentrations, and the final concentration of DMSO was adjusted to 0.1%. Cells were then cultured at 37° C. for 9 days. Ovarian TICs were trypsinized and seeded into tissue cultured treated 96-well plates with 1,000 cells/well. After 24 h, compound was added into the cell culture at different concentrations, and the final concentration of DMSO was adjusted to 0.1%. Cells were then cultured at 37° C. for 6 days. Cell viability was assessed by Alamar Blue assay: 10 ul of Alamar Blue was added into each well. After 4 hours incubation at 37° C., fluorescence was recorded at excitation 544 and emission 590. GI50 (Growth inhibition) was calculated using GraphPad Prism 4.0 software.

[4] = tested on: TICs (Ovarian 2393A); test: Ovarian tumor-initiating cell growth inhibition (Alamar Blue); assay type: cell-based; settings: 144 h; ovarian TICs, 6 days, Alamar Blue; read-out: Tumor Initiating Cell GI50 Range Ovarain 2393A
Description: as §1, §2

[5] = target: T1, human PLK4 (Homo sapiens, UniProt O00444); test: PLK4 inhibition assay (indirect ELISA); assay type: biochemical; settings: 15 μM ATP
T1 construct: amino terminal GST fusion of residues 1-391 of human PLK4; made in house; host or cells: E. coli
T1 sequence (O00444 1-391): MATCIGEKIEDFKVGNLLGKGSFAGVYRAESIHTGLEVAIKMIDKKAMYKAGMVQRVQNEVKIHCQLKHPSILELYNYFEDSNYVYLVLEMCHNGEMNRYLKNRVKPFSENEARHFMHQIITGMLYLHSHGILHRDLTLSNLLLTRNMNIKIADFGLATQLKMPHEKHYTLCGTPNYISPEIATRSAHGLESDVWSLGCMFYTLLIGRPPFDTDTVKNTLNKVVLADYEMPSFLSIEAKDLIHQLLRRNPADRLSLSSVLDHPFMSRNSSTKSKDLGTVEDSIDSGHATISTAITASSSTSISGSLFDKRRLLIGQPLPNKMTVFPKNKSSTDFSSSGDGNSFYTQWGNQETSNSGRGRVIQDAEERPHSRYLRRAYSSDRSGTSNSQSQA
Method in brief: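 Dephosphorylated GST-PLK4 (residues 1-391, E. coli; 4 nM) was preincubated 15 min with compound, then reacted 30 min with 15 μM ATP in HEPES pH 7.4, MgCl2, Brij 35 on MBP-coated plates. Phospho-MBP was detected by antibody/HRP ELISA at 450 nm; IC50 from 10-point titration by 4-parameter logistic fit, or single 10 μM % inhibition.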

SMILES | GI50 [1] [nM] | GI50 [2] [nM] | GI50 [3] [nM] | GI50 [4] [nM] | IC50 [5] [nM]
Cc1ccccc1C(C(=O)Nc1ccc2[nH]nc(-c3ccc(OC4CCN(C)CC4)cc3)c2c1)N1CCCC1 (stereo not drawn) [Example A133, N-(3-(4-((1-methylpiperidin-4-yl)oxy)phenyl)-1H-indazol-5-yl)-2-(pyrrolidin-1-yl)-2-(o-tolyl)acetamide] | < 100 | < 100 | < 100 | 100 to 500 | < 50
CN1CCC(Oc2ccc(-c3n[nH]c4ccc(C(=O)NC(c5ccccc5F)C5CC5)cc34)cc2)CC1 (stereo not drawn) [Example A136, N-(cyclopropyl(2-fluorophenyl)methyl)-3-(4-((1-methylpiperidin-4-yl)oxy)phenyl)-1H-indazole-5-carboxamide] | < 100 | < 100 | > 500 | < 100 | < 50
CN1CCC(Oc2ccc(-c3n[nH]c4ccc(C(=O)N[C@H](CCO)c5ccccc5)cc34)cc2)CC1 [Example A137, (R)-N-(3-hydroxy-1-phenylpropyl)-3-(4-((1-methylpiperidin-4-yl)oxy)phenyl)-1H-indazole-5-carboxamide] | < 100 | 100 to 500 | > 500 | 100 to 500 | < 50
CN1CCC(Oc2ccc(-c3n[nH]c4ccc(NC(=O)C(c5ccccc5)C5CC5)cc34)cc2)CC1 (stereo not drawn) [Example A138, 2-cyclopropyl-N-(3-(4-((1-methylpiperidin-4-yl)oxy)phenyl)-1H-indazol-5-yl)-2-phenylacetamide] | < 100 | < 100 | < 100 | 100 to 500 | < 50
CN1CCC(Oc2ccc(-c3n[nH]c4ccc(C(=O)NC(c5ccccc5Cl)C5CC5)cc34)cc2)CC1 (stereo not drawn) [Example A150, N-((2-chlorophenyl)(cyclopropyl)methyl)-3-(4-((1-methylpiperidin-4-yl)oxy)phenyl)-1H-indazole-5-carboxamide] | < 100 | < 100 | < 100 | < 100 | < 50
COCCN1CCC(Oc2ccc(-c3n[nH]c4ccc(C(=O)N[C@H](c5ccsc5)C5CC5)cc34)cc2)CC1 [Example A154, (S)-N-(cyclopropyl(thiophen-3-yl)methyl)-3-(4-((1-(2-methoxyethyl)piperidin-4-yl)oxy)phenyl)-1H-indazole-5-carboxamide] | < 100 | 100 to 500 | < 100 | < 100 | < 50
CN1CCC(Oc2ccc(-c3n[nH]c4ccc(C(=O)N[C@@H](c5sccc5Cl)C5CC5)cc34)cc2)CC1 [Example A166, (R)-N-((3-chlorothiophen-2-yl)(cyclopropyl)methyl)-3-(4-((1-methylpiperidin-4-yl)oxy)phenyl)-1H-indazole-5-carboxamide] | < 100 | < 100 | < 100 | < 100 | < 50
CN1CCC(Oc2ccc(-c3n[nH]c4ccc(C(=O)N[C@H](c5sccc5Cl)C5CC5)cc34)cc2)CC1 [Example A167, (S)-N-((3-chlorothiophen-2-yl)(cyclopropyl)methyl)-3-(4-((1-methylpiperidin-4-yl)oxy)phenyl)-1H-indazole-5-carboxamide] | < 100 | 100 to 500 | < 100 | < 100 | < 50
CO[C@@H](C(=O)Nc1ccc2[nH]nc(-c3ccc(OC4CCN(C=O)CC4)cc3)c2c1)c1ccccc1 [Example A169, (R)-N-(3-(4-((1-formylpiperidin-4-yl)oxy)phenyl)-1H-indazol-5-yl)-2-methoxy-2-phenylacetamide] | 100 to 500 | 100 to 500 | > 500 | > 500 | < 50
COCCN1CCC(Oc2ccc(-c3n[nH]c4ccc(NC(=O)C(c5ccsc5)N5CCCC5)cc34)cc2)CC1 (stereo not drawn) [Example A175, N-(3-(4-((1-(2-methoxyethyl)piperidin-4-yl)oxy)phenyl)-1H-indazol-5-yl)-2-(pyrrolidin-1-yl)-2-(thiophen-3-yl)acetamide] | < 100 | < 100 | 100 to 500 | < 100 | < 50
O=CN1CCC(Oc2ccc(-c3n[nH]c4ccc(NC(=O)C(c5ccccn5)C5CCCC5)cc34)cc2)CC1 (stereo not drawn) [Example A176, 2-cyclopentyl-N-(3-(4-((1-formylpiperidin-4-yl)oxy)phenyl)-1H-indazol-5-yl)-2-(pyridin-2-yl)acetamide] | 100 to 500 | 100 to 500 | 100 to 500 | 100 to 500 | < 50
CCOC(C(=O)Nc1ccc2[nH]nc(-c3ccc(OC4CCN(C)CC4)cc3)c2c1)c1ccccc1 (stereo not drawn) [Example A181, 2-ethoxy-N-(3-(4-((1-methylpiperidin-4-yl)oxy)phenyl)-1H-indazol-5-yl)-2-phenylacetamide] | 100 to 500 | 100 to 500 | 100 to 500 | > 500 | < 50
O=C(Nc1ccc2[nH]nc(-c3ccc(OC4CCN(C5COC5)CC4)cc3)c2c1)C(c1ccsc1)N1CCCC1 (stereo not drawn) [Example A184, N-(3-(4-((1-(oxetan-3-yl)piperidin-4-yl)oxy)phenyl)-1H-indazol-5-yl)-2-(pyrrolidin-1-yl)-2-(thiophen-3-yl)acetamide] | < 100 | < 100 | 100 to 500 | < 100 | < 50
O=CN1CCC(Oc2ccc(-c3n[nH]c4ccc(C(=O)NC(c5ccsc5)C5CC5)cc34)cc2)CC1 (stereo not drawn) [Example A186, N-(cyclopropyl(thiophen-3-yl)methyl)-3-(4-((1-formylpiperidin-4-yl)oxy)phenyl)-1H-indazole-5-carboxamide] | < 100 | < 100 | < 100 | < 100 | < 50
CC(C)OC(C(=O)Nc1ccc2[nH]nc(-c3ccc(OC4CCN(C)CC4)cc3)c2c1)c1ccccc1 (stereo not drawn) [Example A187, 2-isopropoxy-N-(3-(4-((1-methylpiperidin-4-yl)oxy)phenyl)-1H-indazol-5-yl)-2-phenylacetamide] | < 100 | < 100 | 100 to 500 | > 500 | < 50
CN1CCC(Oc2ccc(-c3n[nH]c4ccc(C(=O)NC(c5ccccc5)C5CC5)cc34)cc2Cl)CC1 (stereo not drawn) [Example A188, 3-(3-chloro-4-((1-methylpiperidin-4-yl)oxy)phenyl)-N-(cyclopropyl(phenyl)methyl)-1H-indazole-5-carboxamide] | 100 to 500 | 100 to 500 | > 500 | > 500 | < 50
CC[C@H](NC(=O)c1ccc2[nH]nc(-c3ccc(OC4CCN(C5COC5)CC4)cc3)c2c1)c1ccccc1Cl [Example A193, (S)-N-(1-(2-chlorophenyl)propyl)-3-(4-((1-(oxetan-3-yl)piperidin-4-yl)oxy)phenyl)-1H-indazole-5-carboxamide] | < 100 | < 100 | < 100 | 100 to 500 | < 50
CN1CCC(Oc2ccc(-c3n[nH]c4ccc(C(=O)N[C@H](CCO)c5ccccc5)cc34)cc2Cl)CC1 [Example A202, (R)-3-(3-chloro-4-((1-methylpiperidin-4-yl)oxy)phenyl)-N-(3-hydroxy-1-phenylpropyl)-1H-indazole-5-carboxamide] | < 100 | < 100 | 100 to 500 | 100 to 500 | < 50
